Patent publication US7473669B2, “Substituted 4,5-dihydro-1,2,4-triazin-6-ones, 1,2,4-triazin-6-ones, and their use as fungicides” (priority 2005, dated 2009)
Where two headings read alike, the source gives them in different places.

Experiments:
Format in all cases: in vivo
Colletotricum lagenarium = assay: Cucumber Anthracnose greenhouse one-day protectant test; conditions: Cucumis sativus, 24 h, read-out: COLLLA percent control rating
Erysiphe cichoracaerum = assay: Cucumber Powdery Mildew greenhouse one-day protectant test; conditions: 24 h, read-out: ERYSCI percent control rating
Leptosphaeria nodorum = assay: Glume Blotch of Wheat greenhouse one-day protectant test; conditions: Parastagonospora nodorum, 24 h, read-out: LEPTNO percent control rating
Phytophthora infestans = assay: whole plant or invertebrate; conditions: in Solanum lycopersicum, 24 h, read-out: PHYTIN percent control rating, tomato plants, one-day protectant test, 200 ppm application rate
[1] = test system: Puccinia recondita tritici; assay: Leaf Rust of Wheat greenhouse one-day protectant test; conditions: 24 h, read-out: PUCCRT percent control rating
Pyricularia oryzae = assay: whole plant or invertebrate; conditions: 24 h, read-out: PYRIOR percent control rating
[2] = cucumber plants, one-day protectant test, 200 ppm application rate
[3] = wheat plants, one-day protectant test, 200 ppm application rate

Compound | pest or weed control at 200 ppm (Colletotricum lagenarium; [2]) [%] | pest or weed control at 200 ppm (Erysiphe cichoracaerum; [2]) [%] | pest or weed control at 200 ppm (Leptosphaeria nodorum; [3]) [%] | pest or weed control at 200 ppm (Phytophthora infestans) [%] | pest or weed control at 200 ppm [1, 3] [%] | pest or weed control at 200 ppm (Pyricularia oryzae) [%] | pest or weed control at 200 ppm (Colletotricum lagenarium) [%] | pest or weed control at 200 ppm (Erysiphe cichoracaerum) [%] | pest or weed control at 200 ppm (Leptosphaeria nodorum) [%] | pest or weed control at 200 ppm [1] [%]
O=C1C(SC2CCCCC2)NC(c2cc(Br)cc(Br)c2)=NN1CC(F)(F)F (stereo not drawn) [Compound 44] | 80 to 100 | 0 to 49 | 80 to 100 | 80 to 100 | 80 to 100 | 80 to 100 |  |  |  | 
O=c1cnc(-c2cccc(/C=C\c3ccccc3)c2)nn1CC(F)(F)F [Compound 89] |  |  |  | 0 to 49 |  | 80 to 100 | 50 to 79 | 0 to 49 | 80 to 100 | 80 to 100
O=C1CNC(c2cccc(C(=NOCc3ccccc3)c3ccccc3)c2)=NN1CC(F)(F)F [Compound 76] | 0 to 49 | 0 to 49 | 50 to 79 | 0 to 49 | 50 to 79 | 80 to 100 |  |  |  | 
Cc1cc(C)cc(C2=NN(CC(F)(F)F)C(=O)C(SCCO)N2)c1 (stereo not drawn) [Compound 38] | 0 to 49 | 0 to 49 | 80 to 100 | 0 to 49 | 80 to 100 | 80 to 100 |  |  |  | 
O=C1CNC(c2csc(-c3ccccc3)c2)=NN1CC(F)(F)F [Compound 60] | 0 to 49 | 0 to 49 | 80 to 100 | 0 to 49 | 0 to 49 | 80 to 100 |  |  |  | 
CC(=O)OCN1N=C(c2ccc(Cl)c(Cl)c2)NCC1=O [Compound 14] | 0 to 49 | 0 to 49 | 0 to 49 | 0 to 49 | 50 to 79 | 0 to 49 |  |  |  | 
O=C1CNC(c2cccc(Oc3nnnn3-c3ccccc3)c2)=NN1CC(F)(F)F [Compound 28] | 0 to 49 | 0 to 49 | 50 to 79 | 0 to 49 | 0 to 49 | 50 to 79 |  |  |  | 
CON=C(c1ccccc1)c1cccc(C2=NN(CC(F)(F)F)C(=O)C(SC3CCCCC3)N2)c1 (stereo not drawn) [Compound 56] | 0 to 49 | 0 to 49 | 80 to 100 | 0 to 49 | 50 to 79 | 80 to 100 |  |  |  | 
O=C1CNC(c2cccc(OCc3ccccc3)c2)=NN1c1cccc(Br)c1 [Compound 21] | 0 to 49 | 0 to 49 | 50 to 79 | 0 to 49 | 50 to 79 | 80 to 100 |  |  |  | 
CS(=O)(=O)OCCN1N=C(c2ccc(Cl)nc2)NCC1=O [Compound 1] | 0 to 49 | 0 to 49 | 0 to 49 | 0 to 49 | 0 to 49 | 50 to 79 |  |  |  | 
O=C1CNC(c2ccc(-c3ccc(C(F)(F)F)cc3)nc2)=NN1CCF [Compound 35] | 50 to 79 | 0 to 49 | 80 to 100 | 50 to 79 | 80 to 100 | 80 to 100 |  |  |  | 
O=C1CNC(c2cc(Cl)cc(Cl)c2)=NN1C(=O)C(F)(F)F [Compound 11] | 50 to 79 | 0 to 49 | 50 to 79 | 0 to 49 | 0 to 49 | 50 to 79 |  |  |  | 
O=c1cnc(-c2cccc(CC3=CCc4ccccc43)c2)nn1CC(F)(F)F [Compound 90] | 0 to 49 | 0 to 49 | 50 to 79 | 0 to 49 | 50 to 79 | 80 to 100 |  |  |  | 
O=C1CNC(c2ccccc2)=NN1CCO [Compound 4] | 0 to 49 | 0 to 49 | 0 to 49 | 0 to 49 | 0 to 49 | 0 to 49 |  |  |  | 
O=C1CNC(c2cc(Br)cc(-c3ccsc3)c2)=NN1Cc1ccccc1 [Compound 68] | 0 to 49 | 0 to 49 | 80 to 100 | 0 to 49 | 0 to 49 | 80 to 100 |  |  |  | 
